# Paper PMC5448077, “Development of an orally available inhibitor of CLK1 for skipping a mutated dystrophin exon in Duchenne muscular dystrophy” (Scientific Reports, 2017)
# How the values were obtained:
# Experiment in all cases: biochemical
# ALK(R1275Q) = ALK(R1275Q) (Homo sapiens, UniProt Q9UM73, R1275Q)
# How it was run: (§1)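 Reactions at room temperature in HEPES buffer (20 mM, pH 7.5, 0.01% Triton X-100, 2 mM DTT) lasted 1 or 5 h depending on kinase, with substrate peptide and ATP-metal. Phosphorylation read by electrophoretic mobility shift or IMAP polarization; kinase activity computed as P/(P + S).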
# CDK2/CycE1 = CDK2/CycE1 (Homo sapiens, UniProt P24941)
# How it was run: as §1
# CDK7/CycH/MAT1 = CDK7/CycH/MAT1 (Homo sapiens, UniProt P50613)
# How it was run: as §1
# CHK2 = biological target: T1, CHK2 (Homo sapiens, UniProt O96017)
# T1 construct: gene CHEK2
# How it was run: as §1
# EEF2K = EEF2K (Homo sapiens, UniProt O00418)
# How it was run: as §1
# EGFR(T790M/L858R) = EGFR(T790M/L858R) (Homo sapiens, UniProt P00533, L858R/T790M)
# How it was run: as §1
# EPHA3 = EPHA3 (Homo sapiens, UniProt P29320)
# How it was run: as §1
# EPHA4 = EPHA4 (Homo sapiens, UniProt P54764)
# How it was run: as §1
# EPHA8 = EPHA8 (Homo sapiens, UniProt P29322)
# How it was run: as §1
# EPHB1 = EPHB1 (Homo sapiens, UniProt P54762)
# How it was run: as §1
# EPHB2 = EPHB2 (Homo sapiens, UniProt P29323)
# How it was run: as §1
# Erk2 = biological target: T2, Erk2 (Homo sapiens, UniProt P28482)
# T2 construct: gene MAPK1
# How it was run: as §1
# FMS = biological target: T3, FMS (Homo sapiens, UniProt P07333)
# T3 construct: gene CSF1R
# How it was run: as §1
# FYN(isoform a) = biological target: T4, FYN(isoform a) (Homo sapiens, UniProt P06241)
# T4 construct: isoform a
# How it was run: as §1
# FYN(isoform b) = biological target: T5, FYN(isoform b) (Homo sapiens, UniProt P06241)
# T5 construct: isoform b
# How it was run: as §1
# HGK = biological target: T6, HGK (Homo sapiens, UniProt O95819)
# T6 construct: gene MAP4K4
# How it was run: as §1
# IRAK4 = IRAK4 (Homo sapiens, UniProt Q9NWZ3)
# How it was run: as §1
# MGC42105 = biological target: T7, MGC42105 (Homo sapiens, UniProt Q8IY84)
# T7 construct: gene NIM1K
# How it was run: as §1
# MINK = biological target: T8, MINK (Homo sapiens, UniProt Q8N4C8)
# T8 construct: gene MINK1
# How it was run: as §1
# PAK2 = PAK2 (Homo sapiens, UniProt Q13177)
# How it was run: as §1
# PHKG2 = PHKG2 (Homo sapiens, UniProt P15735)
# How it was run: as §1
# PKD1 = biological target: T9, PKD1 (Homo sapiens, UniProt Q15139)
# T9 construct: gene PRKD1
# How it was run: as §1
# PKR = biological target: T10, PKR (Homo sapiens, UniProt P19525)
# T10 construct: gene EIF2AK2
# How it was run: as §1
# PLK3 = PLK3 (Homo sapiens, UniProt Q9H4B4)
# How it was run: as §1
# PRKX = PRKX (Homo sapiens, UniProt P51817)
# How it was run: as §1
# RET(G691S) = RET(G691S) (Homo sapiens, UniProt P07949, G691S)
# How it was run: as §1
# ROS = biological target: T11, ROS (Homo sapiens, UniProt P08922)
# T11 construct: gene ROS1
# How it was run: as §1
# RSK1 = biological target: T12, RSK1 (Homo sapiens, UniProt Q15418)
# T12 construct: gene RPS6KA1
# How it was run: as §1
# SGK2 = SGK2 (Homo sapiens, UniProt Q9HBY8)
# How it was run: as §1
# SRPK2 = SRPK2 (Homo sapiens, UniProt P78362)
# How it was run: as §1
# SYK = SYK (Homo sapiens, UniProt P43405)
# How it was run: as §1
# Chain of EPHB2 (P29323 whole entry): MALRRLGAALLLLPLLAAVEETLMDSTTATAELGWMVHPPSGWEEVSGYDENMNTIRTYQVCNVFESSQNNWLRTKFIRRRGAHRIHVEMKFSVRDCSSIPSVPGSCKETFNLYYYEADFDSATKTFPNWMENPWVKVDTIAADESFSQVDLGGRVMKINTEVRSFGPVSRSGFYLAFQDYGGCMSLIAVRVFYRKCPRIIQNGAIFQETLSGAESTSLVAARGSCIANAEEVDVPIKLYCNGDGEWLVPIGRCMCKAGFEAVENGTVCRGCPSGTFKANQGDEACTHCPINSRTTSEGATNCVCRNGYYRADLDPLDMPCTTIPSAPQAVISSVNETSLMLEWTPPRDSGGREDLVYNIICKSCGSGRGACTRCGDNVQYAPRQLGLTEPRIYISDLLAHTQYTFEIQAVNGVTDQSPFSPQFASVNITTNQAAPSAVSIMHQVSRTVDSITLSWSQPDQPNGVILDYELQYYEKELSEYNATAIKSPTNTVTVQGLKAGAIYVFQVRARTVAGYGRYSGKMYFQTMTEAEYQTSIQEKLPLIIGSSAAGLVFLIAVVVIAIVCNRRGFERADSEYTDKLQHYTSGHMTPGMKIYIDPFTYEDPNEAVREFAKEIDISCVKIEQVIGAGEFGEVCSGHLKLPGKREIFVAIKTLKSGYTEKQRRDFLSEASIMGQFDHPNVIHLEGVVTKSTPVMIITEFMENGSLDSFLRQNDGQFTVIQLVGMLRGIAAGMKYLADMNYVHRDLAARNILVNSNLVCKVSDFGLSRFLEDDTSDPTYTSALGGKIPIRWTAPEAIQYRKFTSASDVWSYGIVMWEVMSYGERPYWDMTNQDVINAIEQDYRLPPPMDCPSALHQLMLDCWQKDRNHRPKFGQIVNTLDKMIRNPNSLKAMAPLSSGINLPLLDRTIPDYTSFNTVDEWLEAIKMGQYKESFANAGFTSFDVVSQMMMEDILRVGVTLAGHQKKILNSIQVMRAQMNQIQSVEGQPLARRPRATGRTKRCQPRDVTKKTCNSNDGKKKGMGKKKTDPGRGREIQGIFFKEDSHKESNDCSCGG
# T10 sequence (P19525 whole entry): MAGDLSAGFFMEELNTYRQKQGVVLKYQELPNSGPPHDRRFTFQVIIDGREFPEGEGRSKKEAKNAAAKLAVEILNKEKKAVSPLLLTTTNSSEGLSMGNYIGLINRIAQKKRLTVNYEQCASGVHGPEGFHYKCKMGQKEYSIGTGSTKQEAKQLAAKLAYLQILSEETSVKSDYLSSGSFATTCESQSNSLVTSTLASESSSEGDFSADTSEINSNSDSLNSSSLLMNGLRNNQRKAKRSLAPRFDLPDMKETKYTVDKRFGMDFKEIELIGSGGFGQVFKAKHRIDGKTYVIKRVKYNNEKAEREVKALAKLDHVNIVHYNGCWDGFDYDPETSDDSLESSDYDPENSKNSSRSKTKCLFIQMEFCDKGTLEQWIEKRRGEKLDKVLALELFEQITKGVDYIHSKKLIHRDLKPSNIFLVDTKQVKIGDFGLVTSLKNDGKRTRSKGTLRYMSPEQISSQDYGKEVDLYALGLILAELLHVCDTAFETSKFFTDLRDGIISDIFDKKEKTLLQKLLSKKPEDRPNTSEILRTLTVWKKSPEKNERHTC
# Chain of IRAK4 (Q9NWZ3 whole entry): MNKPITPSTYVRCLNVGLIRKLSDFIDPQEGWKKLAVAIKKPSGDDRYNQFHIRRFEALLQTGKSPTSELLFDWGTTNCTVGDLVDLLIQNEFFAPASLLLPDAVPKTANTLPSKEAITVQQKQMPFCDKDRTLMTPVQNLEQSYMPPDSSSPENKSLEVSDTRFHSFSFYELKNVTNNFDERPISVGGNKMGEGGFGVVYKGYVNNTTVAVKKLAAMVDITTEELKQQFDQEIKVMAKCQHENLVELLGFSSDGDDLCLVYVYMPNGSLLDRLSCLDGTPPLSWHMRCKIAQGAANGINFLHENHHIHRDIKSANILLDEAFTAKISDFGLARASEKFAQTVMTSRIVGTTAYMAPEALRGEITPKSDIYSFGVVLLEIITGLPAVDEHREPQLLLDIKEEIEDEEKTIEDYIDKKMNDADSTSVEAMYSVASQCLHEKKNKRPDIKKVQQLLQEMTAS
# T2 sequence (P28482 whole entry): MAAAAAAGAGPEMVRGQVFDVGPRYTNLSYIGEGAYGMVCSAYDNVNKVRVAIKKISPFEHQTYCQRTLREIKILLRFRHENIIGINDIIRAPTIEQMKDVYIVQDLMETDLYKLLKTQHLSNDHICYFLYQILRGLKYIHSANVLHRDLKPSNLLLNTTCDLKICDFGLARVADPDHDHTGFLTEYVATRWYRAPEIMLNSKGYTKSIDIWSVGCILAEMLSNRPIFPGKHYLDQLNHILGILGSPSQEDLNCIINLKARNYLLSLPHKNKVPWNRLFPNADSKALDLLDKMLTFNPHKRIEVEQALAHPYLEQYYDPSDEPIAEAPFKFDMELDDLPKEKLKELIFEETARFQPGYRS
# Chain of PLK3 (Q9H4B4 whole entry): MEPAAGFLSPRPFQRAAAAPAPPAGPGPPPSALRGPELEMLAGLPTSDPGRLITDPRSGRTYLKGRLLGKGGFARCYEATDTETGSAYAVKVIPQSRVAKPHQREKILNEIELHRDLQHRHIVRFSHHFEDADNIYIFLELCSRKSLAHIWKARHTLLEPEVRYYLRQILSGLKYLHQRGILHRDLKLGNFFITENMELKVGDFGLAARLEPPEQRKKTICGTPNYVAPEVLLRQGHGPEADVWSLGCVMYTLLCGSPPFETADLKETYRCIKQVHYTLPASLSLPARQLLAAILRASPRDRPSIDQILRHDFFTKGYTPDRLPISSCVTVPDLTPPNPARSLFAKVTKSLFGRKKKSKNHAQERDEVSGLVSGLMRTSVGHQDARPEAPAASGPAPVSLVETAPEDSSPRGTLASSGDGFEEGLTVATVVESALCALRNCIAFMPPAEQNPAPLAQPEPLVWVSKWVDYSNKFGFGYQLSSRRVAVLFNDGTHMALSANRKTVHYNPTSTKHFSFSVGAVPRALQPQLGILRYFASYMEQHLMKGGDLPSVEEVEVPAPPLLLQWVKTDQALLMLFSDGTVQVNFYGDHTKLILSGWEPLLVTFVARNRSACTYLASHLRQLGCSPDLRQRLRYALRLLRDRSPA
# Chain of EPHA4 (P54764 whole entry): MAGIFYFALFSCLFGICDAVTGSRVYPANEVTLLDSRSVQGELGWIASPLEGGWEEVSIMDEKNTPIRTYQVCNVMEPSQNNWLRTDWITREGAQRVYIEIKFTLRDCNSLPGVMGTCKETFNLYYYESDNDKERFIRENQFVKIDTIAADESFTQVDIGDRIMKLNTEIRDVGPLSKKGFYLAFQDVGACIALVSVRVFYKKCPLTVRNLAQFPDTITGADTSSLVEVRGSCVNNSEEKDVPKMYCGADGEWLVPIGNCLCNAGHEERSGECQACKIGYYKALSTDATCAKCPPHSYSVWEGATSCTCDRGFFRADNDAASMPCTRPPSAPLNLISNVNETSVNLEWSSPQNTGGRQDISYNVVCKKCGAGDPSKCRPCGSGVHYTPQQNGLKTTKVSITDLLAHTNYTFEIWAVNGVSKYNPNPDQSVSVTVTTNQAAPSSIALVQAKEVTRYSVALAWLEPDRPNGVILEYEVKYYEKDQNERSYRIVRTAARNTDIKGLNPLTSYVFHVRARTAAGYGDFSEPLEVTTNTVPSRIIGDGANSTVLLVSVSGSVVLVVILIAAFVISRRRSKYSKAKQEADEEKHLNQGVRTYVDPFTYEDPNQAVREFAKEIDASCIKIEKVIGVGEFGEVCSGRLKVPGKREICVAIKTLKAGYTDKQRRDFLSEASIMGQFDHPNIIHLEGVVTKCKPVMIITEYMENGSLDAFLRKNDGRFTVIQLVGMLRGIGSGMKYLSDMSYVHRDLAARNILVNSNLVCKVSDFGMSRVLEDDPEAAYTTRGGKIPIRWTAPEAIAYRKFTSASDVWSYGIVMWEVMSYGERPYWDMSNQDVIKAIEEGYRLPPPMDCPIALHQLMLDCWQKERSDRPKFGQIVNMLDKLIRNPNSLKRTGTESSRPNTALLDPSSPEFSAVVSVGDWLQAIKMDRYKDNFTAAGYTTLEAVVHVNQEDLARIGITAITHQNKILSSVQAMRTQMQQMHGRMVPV
# Chain of PAK2 (Q13177 whole entry): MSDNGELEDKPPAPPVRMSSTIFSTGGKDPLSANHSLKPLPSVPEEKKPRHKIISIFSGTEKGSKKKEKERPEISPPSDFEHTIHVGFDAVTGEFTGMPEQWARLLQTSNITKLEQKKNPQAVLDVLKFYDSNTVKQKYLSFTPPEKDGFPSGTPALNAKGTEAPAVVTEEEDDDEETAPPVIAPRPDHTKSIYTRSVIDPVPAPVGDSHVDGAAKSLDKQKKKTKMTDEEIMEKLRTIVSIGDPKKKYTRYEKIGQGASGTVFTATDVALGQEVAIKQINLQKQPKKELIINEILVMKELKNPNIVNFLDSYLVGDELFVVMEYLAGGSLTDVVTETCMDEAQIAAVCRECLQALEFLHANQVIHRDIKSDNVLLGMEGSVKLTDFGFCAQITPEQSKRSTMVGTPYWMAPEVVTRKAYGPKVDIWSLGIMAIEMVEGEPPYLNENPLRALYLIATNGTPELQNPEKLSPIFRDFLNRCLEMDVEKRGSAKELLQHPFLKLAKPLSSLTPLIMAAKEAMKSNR
# Chain of SGK2 (Q9HBY8 whole entry): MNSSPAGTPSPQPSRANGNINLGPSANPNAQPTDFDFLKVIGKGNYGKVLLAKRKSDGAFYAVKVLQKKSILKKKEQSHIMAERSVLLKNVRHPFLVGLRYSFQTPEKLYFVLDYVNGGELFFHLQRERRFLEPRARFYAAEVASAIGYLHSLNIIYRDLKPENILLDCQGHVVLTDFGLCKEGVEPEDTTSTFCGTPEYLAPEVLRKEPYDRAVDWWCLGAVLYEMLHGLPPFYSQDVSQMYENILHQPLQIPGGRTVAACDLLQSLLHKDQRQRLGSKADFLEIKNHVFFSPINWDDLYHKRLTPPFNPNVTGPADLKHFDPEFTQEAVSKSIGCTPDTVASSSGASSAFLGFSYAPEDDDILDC
structure (smiles),measurement,setting,value
"c1cc(-c2ccc3[nH]ncc3c2)ccn1 [TG693, 5-(4-pyridinyl)-1H-indazole]",inhibition at 1 µM,ALK(R1275Q),-7.6%
same,inhibition at 1 µM,CDK2/CycE1,18.1%
same,inhibition at 1 µM,CDK7/CycH/MAT1,6.2%
same,inhibition at 1 µM,CHK2,-1%
same,inhibition at 1 µM,EEF2K,-15.2%
same,inhibition at 1 µM,EGFR(T790M/L858R),1.3%
same,inhibition at 1 µM,EPHA3,0.4%
same,inhibition at 1 µM,EPHA4,2.4%
same,inhibition at 1 µM,EPHA8,7.3%
same,inhibition at 1 µM,EPHB1,2.5%
same,inhibition at 1 µM,EPHB2,0.3%
same,inhibition at 1 µM,Erk2,-5.8%
same,inhibition at 1 µM,FMS,2.6%
same,inhibition at 1 µM,FYN(isoform a),-0.7%
same,inhibition at 1 µM,FYN(isoform b),0.6%
same,inhibition at 1 µM,HGK,66.5%
same,inhibition at 1 µM,IRAK4,8.4%
same,inhibition at 1 µM,MGC42105,-22.2%
same,inhibition at 1 µM,MINK,23.2%
same,inhibition at 1 µM,PAK2,-51.3%
same,inhibition at 1 µM,PHKG2,6.3%
same,inhibition at 1 µM,PKD1,-15.8%
same,inhibition at 1 µM,PKR,1.2%
same,inhibition at 1 µM,PLK3,1.7%
same,inhibition at 1 µM,PRKX,12.2%
same,inhibition at 1 µM,RET(G691S),4.9%
same,inhibition at 1 µM,ROS,8.1%
same,inhibition at 1 µM,RSK1,-4.7%
same,inhibition at 1 µM,SGK2,-5.4%
same,inhibition at 1 µM,SRPK2,0.5%
same,inhibition at 1 µM,SYK,-60.9%
